The source of these data is patent publication US11076595B2, “1-(n,n-disubstituted carbamoyl) 4-(substituted sulfonyl)triazolin-5-one derivative, 4-(n,n-disubstituted carbamoyl) 1-(substituted sulfonyl)triazolin-5-one derivative, and herbicide containing said derivative as active ingredient” (HOKKO CHEMICAL INDUSTRY CO., LTD., priority 2017, dated 2021).

Holding throughout (type): in vivo
For assay [1], the system named is Echinochloa crus-galli. Nature of the assay: Test Example 11: herbicidal effect test by soil treatment in paddy field. The settings on record: 120 g/10a active ingredient, 14 days after treatment. The essentials: (§1)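 Pre-emergence flooded-paddy test: the water-diluted emulsifiable concentrate, 120 g active ingredient per 10 are, was dripped into pots immediately after seeding, with water held at about 3 cm. Two replicate pots per rate; 14 days after treatment, plant dry weight versus untreated pots gave the weed suppression rate.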

Assay [2] concerns Lindernia pyxidaria. The description is as above. The settings on record: 120 g/10a active ingredient, 14 days after treatment. The gist of the method: as §1
In assay [3] the test system is Monochoria vaginalis. The assay is described as above. The settings on record: 120 g/10a active ingredient, 14 days after treatment. The essentials: as §1
The subject of assay [4] is Scirpus juncoides. The assay is described as above. The settings on record: 120 g/10a active ingredient, 14 days after treatment. The essentials: as §1
For assay [5], the system named is Echinochloa crus-galli. Put plainly: Test Example 12: herbicidal effect test by treatment during growing period in paddy field. The settings on record: 120 g/10a; treatment seven days after sowing in flooded paddy pot; assessed 14 days after treatment. The gist of the method: (§2)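 Seeds (30 per species) are sown shallowly into fertilized, puddled paddy soil kept under ~3 cm of water in a greenhouse. One week later, compound formulated as an emulsifiable concentrate is applied dropwise to the water at 120 g a.i./10 are. After 14 days, dry weights give percent suppression against untreated controls.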

Assay [6] deals with Lindernia pyxidaria. Described as above. The settings on record: 120 g/10a; treatment seven days after sowing in flooded paddy pot; assessed 14 days after treatment. The gist of the method: as §2
In assay [7] the test system is Monochoria vaginalis. The description is as above. The settings on record: 120 g/10a; treatment seven days after sowing in flooded paddy pot; assessed 14 days after treatment. The essentials:
as §2

Assay [8] concerns Scirpus juncoides. Described as above. The settings on record: 120 g/10a; treatment seven days after sowing in flooded paddy pot; assessed 14 days after treatment. The essentials:
as §2

As for `Cc1cc(C)c(S(=O)(=O)n2ncn(C(=O)N(c3ccc(F)cc3)C(C)C)c2=O)c(C)c1` [Compound 11-855], the “Weed suppression rate (%) Echinochloa crus-galli” value in the assay on Echinochloa crus-galli [1] stood at 100%; in the assay on Echinochloa crus-galli [5], 80%. In addition, the figures for the “Weed suppression rate (%) Lindemia pyxidaria” value in the assay on Lindernia pyxidaria [2] and with Lindernia pyxidaria [6] were 90% and 60%, respectively. Further, the “Weed suppression rate (%) Monochoria vaginalis” value is recorded as 90% in the assay on Monochoria vaginalis [3] and 80% with Monochoria vaginalis [7]. Further, the entries for the “Weed suppression rate (%) Scirpus juncoides” value in the assay with Scirpus juncoides [4] and in the assay with Scirpus juncoides [8] were 90% and 80%, respectively.
Take `Cc1cc(C)c(S(=O)(=O)n2ncn(C(=O)N(c3cccc(F)c3F)C(C)C)c2=O)c(C)c1` [Compound 11-862]: the “Weed suppression rate (%) Echinochloa crus-galli” value in the assay with Echinochloa crus-galli [1] and in the assay with Echinochloa crus-galli [5] was 100% throughout. Further, the “Weed suppression rate (%) Lindemia pyxidaria” value in the assay on Lindernia pyxidaria [2] worked out at 100%; in the assay with Lindernia pyxidaria [6] it was 80%. Further, the “Weed suppression rate (%) Monochoria vaginalis” value in the assay with Monochoria vaginalis [3] and in the assay with Monochoria vaginalis [7] was 100% each time. In addition, the “Weed suppression rate (%) Scirpus juncoides” value in the assay with Scirpus juncoides [4] and in the assay on Scirpus juncoides [8] was 100% in each case.
For `Cc1cc(C)c(S(=O)(=O)n2ncn(C(=O)N(c3ccc(F)c(F)c3F)C(C)C)c2=O)c(C)c1` [Compound 11-866], the figures for the “Weed suppression rate (%) Echinochloa crus-galli” value in the assay with Echinochloa crus-galli [1] and in the assay with Echinochloa crus-galli [5] were 100% and 80%, respectively. The “Weed suppression rate (%) Lindemia pyxidaria” value was 100% with Lindernia pyxidaria [2] and 70% in the assay with Lindernia pyxidaria [6]. Further, the “Weed suppression rate (%) Monochoria vaginalis” value in the assay with Monochoria vaginalis [3] and in the assay with Monochoria vaginalis [7] was 90% each time. For the same compound, the entries for the “Weed suppression rate (%) Scirpus juncoides” value with Scirpus juncoides [4] and in the assay with Scirpus juncoides [8] were 90% and 60%, respectively.
In the case of `Cc1cc(C)c(S(=O)(=O)n2ncn(C(=O)N(c3c(F)cc(F)cc3F)C(C)C)c2=O)c(C)c1` [Compound 11-867], the “Weed suppression rate (%) Echinochloa crus-galli” value with Echinochloa crus-galli [1] and in the assay on Echinochloa crus-galli [5] was 100% each time. The “Weed suppression rate (%) Lindemia pyxidaria” value came out at 100% in the assay with Lindernia pyxidaria [2] and 70% in the assay with Lindernia pyxidaria [6]. Further, the “Weed suppression rate (%) Monochoria vaginalis” value in the assay on Monochoria vaginalis [3] and with Monochoria vaginalis [7] was 80% each time. Moreover, the “Weed suppression rate (%) Scirpus juncoides” value with Scirpus juncoides [4] and in the assay on Scirpus juncoides [8] was 80% throughout.
In the case of `Cc1cc(C)c(S(=O)(=O)n2ncn(C(=O)N(c3c(F)c(F)cc(F)c3F)C(C)C)c2=O)c(C)c1` [Compound 11-868], the “Weed suppression rate (%) Echinochloa crus-galli” value in the assay with Echinochloa crus-galli [1] was found to be 100%; in the assay on Echinochloa crus-galli [5], 90%. Besides, the “Weed suppression rate (%) Lindemia pyxidaria” value in the assay with Lindernia pyxidaria [2] was 100%; in the assay on Lindernia pyxidaria [6], 90%. The “Weed suppression rate (%) Monochoria vaginalis” value amounted to 70% in the assay with Monochoria vaginalis [3] and 80% with Monochoria vaginalis [7]. Further, the results for the “Weed suppression rate (%) Scirpus juncoides” value with Scirpus juncoides [4] and in the assay on Scirpus juncoides [8] were 100% and 60%, respectively.
For the compound `Cc1cc(C)c(S(=O)(=O)n2ncn(C(=O)N(c3ccc(Cl)cn3)C(C)C)c2=O)c(C)c1` [Compound 11-889], the “Weed suppression rate (%) Echinochloa crus-galli” value with Echinochloa crus-galli [1] and in the assay with Echinochloa crus-galli [5] was 100% in each case. The results for the “Weed suppression rate (%) Lindemia pyxidaria” value with Lindernia pyxidaria [2] and in the assay with Lindernia pyxidaria [6] were 100% and 70%, respectively. Besides, the “Weed suppression rate (%) Monochoria vaginalis” value with Monochoria vaginalis [3] and in the assay on Monochoria vaginalis [7] was 80% in each case. Also, the “Weed suppression rate (%) Scirpus juncoides” value in the assay with Scirpus juncoides [4] and with Scirpus juncoides [8] was 90% each time.
As for `CC(C)N(C(=O)n1cnn(S(=O)(=O)c2cccs2)c1=O)c1ccc(F)cc1` [Compound 11-1014], the “Weed suppression rate (%) Echinochloa crus-galli” value in the assay with Echinochloa crus-galli [1] and in the assay with Echinochloa crus-galli [5] was 90% in each case. Further, the “Weed suppression rate (%) Lindemia pyxidaria” value with Lindernia pyxidaria [2] is listed as 90%; in the assay with Lindernia pyxidaria [6], 80%. The “Weed suppression rate (%) Monochoria vaginalis” value with Monochoria vaginalis [3] and in the assay with Monochoria vaginalis [7] was 80% each time. For the same compound, the “Weed suppression rate (%) Scirpus juncoides” value with Scirpus juncoides [4] and in the assay on Scirpus juncoides [8] was 90% in each case.
For `CC(C)N(C(=O)n1cnn(S(=O)(=O)c2cccs2)c1=O)c1c(F)c(F)cc(F)c1F` [Compound 11-1027], the “Weed suppression rate (%) Echinochloa crus-galli” value with Echinochloa crus-galli [1] and with Echinochloa crus-galli [5] was 100% in each case. The “Weed suppression rate (%) Lindemia pyxidaria” value in the assay with Lindernia pyxidaria [2] is 100%; with Lindernia pyxidaria [6] it was 80%. Besides, the “Weed suppression rate (%) Monochoria vaginalis” value with Monochoria vaginalis [3] and in the assay on Monochoria vaginalis [7] was 90% each time. Besides, the “Weed suppression rate (%) Scirpus juncoides” value in the assay on Scirpus juncoides [4] and in the assay on Scirpus juncoides [8] was 100% in each case.
`CC(C)N(C(=O)n1cnn(S(=O)(=O)c2cccs2)c1=O)c1ccc(Cl)cc1Br` [Compound 11-1034]: the “Weed suppression rate (%) Echinochloa crus-galli” value was 100% in the assay on Echinochloa crus-galli [1] and 90% with Echinochloa crus-galli [5]. Also, the “Weed suppression rate (%) Lindemia pyxidaria” value with Lindernia pyxidaria [2] came to 90%; in the assay with Lindernia pyxidaria [6] it was 70%. The “Weed suppression rate (%) Monochoria vaginalis” value with Monochoria vaginalis [3] and in the assay on Monochoria vaginalis [7] was 70% in each case. Besides, the “Weed suppression rate (%) Scirpus juncoides” value in the assay with Scirpus juncoides [4] was 100%; in the assay on Scirpus juncoides [8] it was 70%.
With `Cc1ccc(N(C(=O)n2cnn(S(=O)(=O)c3cccs3)c2=O)C(C)C)c(F)c1` [Compound 11-1036], the “Weed suppression rate (%) Echinochloa crus-galli” value in the assay with Echinochloa crus-galli [1] and with Echinochloa crus-galli [5] was 90% each time. Also, the “Weed suppression rate (%) Lindemia pyxidaria” value in the assay with Lindernia pyxidaria [2] was 90%; in the assay on Lindernia pyxidaria [6], 80%. Besides, the “Weed suppression rate (%) Monochoria vaginalis” value with Monochoria vaginalis [3] came to 90%; in the assay with Monochoria vaginalis [7], 80%. The “Weed suppression rate (%) Scirpus juncoides” value with Scirpus juncoides [4] and with Scirpus juncoides [8] was 90% in each case.
Regarding `CC(C)N(C(=O)n1cnn(S(=O)(=O)c2cccs2)c1=O)c1ccc(C(F)(F)F)cc1Cl` [Compound 11-1042], the “Weed suppression rate (%) Echinochloa crus-galli” value in the assay with Echinochloa crus-galli [1] and in the assay on Echinochloa crus-galli [5] was 90% throughout. For the same compound, the “Weed suppression rate (%) Lindemia pyxidaria” value in the assay with Lindernia pyxidaria [2] and with Lindernia pyxidaria [6] was 80% in each case. Further, the “Weed suppression rate (%) Monochoria vaginalis” value in the assay with Monochoria vaginalis [3] and in the assay with Monochoria vaginalis [7] was 80% in each case. The “Weed suppression rate (%) Scirpus juncoides” value in the assay with Scirpus juncoides [4] and in the assay on Scirpus juncoides [8] was 90% in each case.
Regarding `CC(C)N(C(=O)n1cnn(S(=O)(=O)c2cccs2)c1=O)c1ccc(C#N)cc1Cl` [Compound 11-1044], the “Weed suppression rate (%) Echinochloa crus-galli” value in the assay on Echinochloa crus-galli [1] and in the assay with Echinochloa crus-galli [5] was 90% in each case. Further, the “Weed suppression rate (%) Lindemia pyxidaria” value in the assay on Lindernia pyxidaria [2] is listed as 90%; with Lindernia pyxidaria [6] it was 80%. In addition, the “Weed suppression rate (%) Monochoria vaginalis” value was determined as 90% in the assay on Monochoria vaginalis [3] and 80% with Monochoria vaginalis [7]. Moreover, the “Weed suppression rate (%) Scirpus juncoides” value in the assay on Scirpus juncoides [4] and with Scirpus juncoides [8] was 90% throughout.
For the compound `CC(C)N(C(=O)n1cnn(S(=O)(=O)N(C)C)c1=O)c1ccccc1F` [Compound 11-1054], the “Weed suppression rate (%) Echinochloa crus-galli” value with Echinochloa crus-galli [1] and in the assay with Echinochloa crus-galli [5] was 90% in each case. For the same compound, the “Weed suppression rate (%) Lindemia pyxidaria” value with Lindernia pyxidaria [2] and with Lindernia pyxidaria [6] was 80% each time. The “Weed suppression rate (%) Monochoria vaginalis” value in the assay with Monochoria vaginalis [3] and with Monochoria vaginalis [7] was 80% throughout. For the same compound, the “Weed suppression rate (%) Scirpus juncoides” value with Scirpus juncoides [4] and in the assay with Scirpus juncoides [8] was 90% in each case.
In the case of `CC(C)N(C(=O)n1cnn(S(=O)(=O)N(C)C)c1=O)c1ccc(Cl)cc1Br` [Compound 11-1076], the “Weed suppression rate (%) Echinochloa crus-galli” value with Echinochloa crus-galli [1] and with Echinochloa crus-galli [5] was 90% throughout. The “Weed suppression rate (%) Lindemia pyxidaria” value with Lindernia pyxidaria [2] and with Lindernia pyxidaria [6] was 60% in each case. Also, the “Weed suppression rate (%) Monochoria vaginalis” value in the assay on Monochoria vaginalis [3] was determined as 60%; in the assay on Monochoria vaginalis [7], 30%. The “Weed suppression rate (%) Scirpus juncoides” value in the assay on Scirpus juncoides [4] and with Scirpus juncoides [8] was 60% each time.
With `Cc1cc(Cl)ccc1N(C(=O)n1cnn(S(=O)(=O)N(C)C)c1=O)C(C)C` [Compound 11-1079], the “Weed suppression rate (%) Echinochloa crus-galli” value in the assay on Echinochloa crus-galli [1] and in the assay with Echinochloa crus-galli [5] was 90% each time. For the same compound, the “Weed suppression rate (%) Lindemia pyxidaria” value in the assay on Lindernia pyxidaria [2] and in the assay on Lindernia pyxidaria [6] was 80% throughout. Besides, the “Weed suppression rate (%) Monochoria vaginalis” value with Monochoria vaginalis [3] and in the assay with Monochoria vaginalis [7] was 80% each time. Further, the “Weed suppression rate (%) Scirpus juncoides” value with Scirpus juncoides [4] and in the assay on Scirpus juncoides [8] was 90% throughout.
Take `CC(C)N(C(=O)n1cnn(S(=O)(=O)N(C)C)c1=O)c1ccc(C(F)(F)F)cc1Cl` [Compound 11-1084]: the “Weed suppression rate (%) Echinochloa crus-galli” value in the assay on Echinochloa crus-galli [1] and in the assay on Echinochloa crus-galli [5] was 90% in each case. For the same compound, the “Weed suppression rate (%) Lindemia pyxidaria” value with Lindernia pyxidaria [2] and in the assay with Lindernia pyxidaria [6] was 80% each time. Also, the “Weed suppression rate (%) Monochoria vaginalis” value in the assay on Monochoria vaginalis [3] and in the assay on Monochoria vaginalis [7] was 80% in each case. In addition, the “Weed suppression rate (%) Scirpus juncoides” value with Scirpus juncoides [4] and with Scirpus juncoides [8] was 90% throughout.
